A value given as a limit tells only on which side of the number the result lay.

The target in test [1] is T1, Metabotropic glutamate receptor 4 (Rattus norvegicus, UniProt P31423). Briefly: Displacement of [3H]L-AP4 from rat mGluR4 expressed in BHK cells. The class given is cell-based. On the technique in general: Loss of bound radioactivity is the signal in a displacement assay; it reports binding, not function.
Test [2] concerns the target Metabotropic glutamate receptor 7 (Homo sapiens, UniProt Q14831). Briefly: Activity at human mGluR7 by measuring cAMP formation in BHK cells. The format is functional, cell-based. On the technique in general: Cyclic AMP is a second messenger, typically raised through Gs and lowered through Gi signalling.
Test [3] has as its target Metabotropic glutamate receptor 1 (Rattus norvegicus, UniProt P23385). The test can be described thus: Activity at rat mGluR1 by measuring intracellular calcium concentration in CHO cells. The format is functional, cell-based. (Calcium assays in cells follow changes in intracellular calcium, usually with a dye or a luminescent sensor.)
The target in test [4] is Metabotropic glutamate receptor 2 (Homo sapiens, UniProt Q14416). The test can be described thus: Activity at human mGluR2 from BHK cells in [35S]GTP-gamma-S stimulation assay. The class given is functional, cell-based.
The target of test [5] is T1, Metabotropic glutamate receptor 4. The test can be described thus: Functional activity at rat mGluR4.
The target of test [6] is Metabotropic glutamate receptor 8 (Rattus norvegicus, UniProt P70579). The test can be described thus: Displacement of [3H]LY341495 from rat mGluR8 expressed in BHK cells. The format is cell-based.
Test [7] addresses Metabotropic glutamate receptor 5 (Rattus norvegicus, UniProt P31424). The test can be described thus: Activity at rat mGluR5 by measuring intracellular calcium concentration in CHO cells. The format is functional, cell-based.
Test [8] addresses Metabotropic glutamate receptor 6 (Rattus norvegicus, UniProt P35349). The test can be described thus: Activity at rat mGluR6 by measuring cAMP formation in CHO cells. The class given is functional, cell-based.

Chain of Metabotropic glutamate receptor 2 (Q14416 whole entry): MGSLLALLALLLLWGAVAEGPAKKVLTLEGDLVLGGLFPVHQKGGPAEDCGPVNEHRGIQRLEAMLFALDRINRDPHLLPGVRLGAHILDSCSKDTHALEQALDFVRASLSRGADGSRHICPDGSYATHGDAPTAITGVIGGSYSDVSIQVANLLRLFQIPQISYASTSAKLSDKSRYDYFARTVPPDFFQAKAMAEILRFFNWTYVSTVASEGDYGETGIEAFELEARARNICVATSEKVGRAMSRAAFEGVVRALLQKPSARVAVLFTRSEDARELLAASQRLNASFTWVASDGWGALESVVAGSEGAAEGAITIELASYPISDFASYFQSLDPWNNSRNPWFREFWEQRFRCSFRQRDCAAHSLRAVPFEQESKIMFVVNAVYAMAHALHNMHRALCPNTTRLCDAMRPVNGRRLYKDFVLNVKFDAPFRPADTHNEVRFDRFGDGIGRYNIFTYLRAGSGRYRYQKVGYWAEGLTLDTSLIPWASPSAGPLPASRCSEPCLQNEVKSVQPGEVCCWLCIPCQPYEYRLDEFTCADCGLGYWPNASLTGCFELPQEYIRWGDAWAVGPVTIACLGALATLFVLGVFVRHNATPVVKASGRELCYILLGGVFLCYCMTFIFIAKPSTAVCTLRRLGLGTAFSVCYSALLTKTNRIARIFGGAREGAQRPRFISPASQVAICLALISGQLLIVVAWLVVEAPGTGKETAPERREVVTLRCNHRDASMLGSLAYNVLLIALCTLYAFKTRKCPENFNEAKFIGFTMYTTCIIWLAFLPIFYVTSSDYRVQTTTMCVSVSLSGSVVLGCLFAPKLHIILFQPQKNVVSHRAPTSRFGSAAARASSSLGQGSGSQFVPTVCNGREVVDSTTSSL
Chain of Metabotropic glutamate receptor 8 (P70579 whole entry): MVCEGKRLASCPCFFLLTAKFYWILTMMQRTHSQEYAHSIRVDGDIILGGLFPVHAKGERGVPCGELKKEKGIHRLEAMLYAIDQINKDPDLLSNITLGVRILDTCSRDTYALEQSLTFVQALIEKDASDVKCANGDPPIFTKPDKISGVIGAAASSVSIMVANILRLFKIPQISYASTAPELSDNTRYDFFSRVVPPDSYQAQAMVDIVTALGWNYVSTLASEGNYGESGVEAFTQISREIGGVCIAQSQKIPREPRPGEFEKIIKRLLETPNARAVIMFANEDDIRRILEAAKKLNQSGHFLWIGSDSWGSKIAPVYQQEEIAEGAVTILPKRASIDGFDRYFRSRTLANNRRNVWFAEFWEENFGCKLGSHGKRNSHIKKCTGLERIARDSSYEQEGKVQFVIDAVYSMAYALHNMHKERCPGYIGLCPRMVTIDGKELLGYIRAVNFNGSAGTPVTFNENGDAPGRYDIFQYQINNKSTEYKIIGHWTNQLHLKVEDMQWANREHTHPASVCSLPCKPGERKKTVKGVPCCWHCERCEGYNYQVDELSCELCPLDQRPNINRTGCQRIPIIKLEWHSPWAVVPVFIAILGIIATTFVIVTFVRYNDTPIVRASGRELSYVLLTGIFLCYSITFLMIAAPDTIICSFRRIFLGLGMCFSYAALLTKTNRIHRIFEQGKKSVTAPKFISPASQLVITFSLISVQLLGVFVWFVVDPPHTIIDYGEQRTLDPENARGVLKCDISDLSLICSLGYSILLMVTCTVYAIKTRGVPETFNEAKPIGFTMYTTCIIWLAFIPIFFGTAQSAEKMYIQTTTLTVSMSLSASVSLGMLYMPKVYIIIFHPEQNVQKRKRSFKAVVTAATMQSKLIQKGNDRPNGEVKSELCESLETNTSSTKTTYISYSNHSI
Chain of Metabotropic glutamate receptor 7 (Q14831 whole entry): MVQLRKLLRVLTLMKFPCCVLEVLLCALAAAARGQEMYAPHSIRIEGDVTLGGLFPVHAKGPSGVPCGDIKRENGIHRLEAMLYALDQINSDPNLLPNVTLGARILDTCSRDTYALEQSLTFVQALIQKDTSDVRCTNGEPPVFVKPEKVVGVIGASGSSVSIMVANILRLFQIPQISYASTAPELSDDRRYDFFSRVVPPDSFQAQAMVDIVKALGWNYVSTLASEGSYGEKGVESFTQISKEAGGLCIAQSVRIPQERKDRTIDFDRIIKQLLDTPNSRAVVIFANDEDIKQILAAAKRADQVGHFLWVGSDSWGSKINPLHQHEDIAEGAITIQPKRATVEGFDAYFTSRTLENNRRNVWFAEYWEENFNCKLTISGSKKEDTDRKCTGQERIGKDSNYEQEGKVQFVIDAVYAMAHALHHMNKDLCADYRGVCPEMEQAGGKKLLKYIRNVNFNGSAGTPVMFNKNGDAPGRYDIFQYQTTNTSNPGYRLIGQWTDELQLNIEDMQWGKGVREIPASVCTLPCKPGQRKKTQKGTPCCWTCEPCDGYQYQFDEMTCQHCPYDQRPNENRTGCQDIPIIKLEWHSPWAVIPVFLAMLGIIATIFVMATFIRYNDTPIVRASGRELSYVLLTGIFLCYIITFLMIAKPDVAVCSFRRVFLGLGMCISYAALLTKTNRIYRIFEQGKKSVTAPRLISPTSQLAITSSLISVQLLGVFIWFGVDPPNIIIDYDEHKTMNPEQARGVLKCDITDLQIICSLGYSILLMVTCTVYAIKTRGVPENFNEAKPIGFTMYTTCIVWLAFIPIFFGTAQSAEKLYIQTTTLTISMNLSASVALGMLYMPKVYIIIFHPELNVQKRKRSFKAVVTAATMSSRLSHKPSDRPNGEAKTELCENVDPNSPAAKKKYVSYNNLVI
Chain of Metabotropic glutamate receptor 6 (P35349 whole entry): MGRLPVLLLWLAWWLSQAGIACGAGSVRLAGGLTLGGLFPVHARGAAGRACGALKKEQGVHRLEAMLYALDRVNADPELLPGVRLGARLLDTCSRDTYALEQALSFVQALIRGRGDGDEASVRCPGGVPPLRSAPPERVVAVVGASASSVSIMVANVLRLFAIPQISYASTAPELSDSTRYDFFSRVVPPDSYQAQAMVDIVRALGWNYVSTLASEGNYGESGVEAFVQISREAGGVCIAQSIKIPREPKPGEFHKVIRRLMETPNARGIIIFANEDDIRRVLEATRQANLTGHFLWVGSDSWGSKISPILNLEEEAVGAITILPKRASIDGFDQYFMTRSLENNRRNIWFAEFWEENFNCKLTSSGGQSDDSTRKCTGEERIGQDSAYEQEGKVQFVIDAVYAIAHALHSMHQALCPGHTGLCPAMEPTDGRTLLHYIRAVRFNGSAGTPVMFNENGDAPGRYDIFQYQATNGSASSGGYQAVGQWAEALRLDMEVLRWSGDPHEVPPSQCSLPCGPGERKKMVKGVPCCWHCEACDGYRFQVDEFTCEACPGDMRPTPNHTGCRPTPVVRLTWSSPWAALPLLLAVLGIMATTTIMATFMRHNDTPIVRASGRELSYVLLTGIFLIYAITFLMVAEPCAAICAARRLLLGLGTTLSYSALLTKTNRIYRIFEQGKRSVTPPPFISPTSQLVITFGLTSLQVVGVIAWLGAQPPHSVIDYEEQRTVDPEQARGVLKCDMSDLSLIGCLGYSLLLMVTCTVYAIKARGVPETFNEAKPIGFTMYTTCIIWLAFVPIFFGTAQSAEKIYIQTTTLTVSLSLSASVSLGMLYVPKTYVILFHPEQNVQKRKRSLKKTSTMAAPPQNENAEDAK
Chain of Metabotropic glutamate receptor 5 (P31424 whole entry): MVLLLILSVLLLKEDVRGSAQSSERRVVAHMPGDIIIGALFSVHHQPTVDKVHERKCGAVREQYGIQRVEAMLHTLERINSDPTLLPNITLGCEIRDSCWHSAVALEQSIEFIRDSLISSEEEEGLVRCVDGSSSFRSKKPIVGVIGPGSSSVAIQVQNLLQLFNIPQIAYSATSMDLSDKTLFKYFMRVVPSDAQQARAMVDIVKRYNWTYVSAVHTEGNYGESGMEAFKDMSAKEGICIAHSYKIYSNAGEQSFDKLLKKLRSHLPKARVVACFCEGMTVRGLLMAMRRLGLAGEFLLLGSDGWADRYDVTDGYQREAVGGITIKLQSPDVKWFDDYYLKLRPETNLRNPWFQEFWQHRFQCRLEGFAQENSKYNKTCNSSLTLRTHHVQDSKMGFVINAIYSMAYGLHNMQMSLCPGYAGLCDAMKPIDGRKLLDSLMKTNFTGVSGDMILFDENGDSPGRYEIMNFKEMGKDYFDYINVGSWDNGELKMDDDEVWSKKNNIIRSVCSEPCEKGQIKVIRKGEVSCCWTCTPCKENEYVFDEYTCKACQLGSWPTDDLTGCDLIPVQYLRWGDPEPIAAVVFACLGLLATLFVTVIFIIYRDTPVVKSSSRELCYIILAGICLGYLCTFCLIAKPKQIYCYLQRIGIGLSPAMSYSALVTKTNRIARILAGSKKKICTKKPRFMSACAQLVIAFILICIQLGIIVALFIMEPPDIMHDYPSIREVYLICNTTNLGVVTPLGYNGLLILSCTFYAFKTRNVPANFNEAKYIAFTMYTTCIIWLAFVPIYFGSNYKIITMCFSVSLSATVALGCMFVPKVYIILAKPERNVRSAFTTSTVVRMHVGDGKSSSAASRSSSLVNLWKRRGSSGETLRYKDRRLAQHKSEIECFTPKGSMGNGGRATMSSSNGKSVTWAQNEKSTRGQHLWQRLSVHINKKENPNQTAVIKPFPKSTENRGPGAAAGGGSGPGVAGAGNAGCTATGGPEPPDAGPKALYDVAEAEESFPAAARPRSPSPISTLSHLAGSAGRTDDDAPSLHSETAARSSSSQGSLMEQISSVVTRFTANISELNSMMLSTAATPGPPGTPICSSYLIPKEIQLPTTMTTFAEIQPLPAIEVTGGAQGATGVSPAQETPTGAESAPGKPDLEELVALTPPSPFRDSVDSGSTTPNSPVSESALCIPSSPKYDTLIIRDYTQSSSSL

Consider `N[C@H](C(=O)O)[C@H]1C[C@@H]1P(=O)(O)O`, for which the inhibitory constant (Ki) (usually the equilibrium dissociation constant of an inhibitor or competing ligand from its target) in test [1] turned out to be 7.4 µM; in test [6], 63 µM. Further, the EC50 (usually the concentration that produces a half-maximal response) is 700 µM in test [2]; > 1000 µM in test [3]; > 1000 µM in test [4]; 9.4 µM in test [5]; > 1000 µM in test [7]; 13 µM in test [8].
As for `N[C@H](C(=O)O)[C@@H]1C[C@H]1P(=O)(O)O`, the results for the Ki in test [1] and in test [6] were 53 µM and 54 µM, respectively. Moreover, the EC50 is > 1000 µM in test [2]; > 1000 µM in test [3]; > 1000 µM in test [4]; 49 µM in test [5]; > 1000 µM in test [7]; 46 µM in test [8].
As for `N[C@@H](CCP(=O)(O)O)C(=O)O`, the Ki in test [1] was 0.16 µM; in test [6], 1.9 µM. Further, the EC50 in test [2] was 188 µM; in test [3], > 1000 µM; in test [4], > 1000 µM; in test [5] it was 0.51 µM; in test [7] it was > 1000 µM; in test [8] it was 0.34 µM.
For the molecule `N[C@@H](CCC(=O)O)C(=O)O` [GLUTAMIC ACID], the Ki in test [1] and in test [6] was 3.4 µM each time. Besides, the 50% effective concentration (EC50) was > 1000 µM in test [2], 6.1 µM in test [5] and 7.6 µM in test [8].

These data come from ChEMBL document CHEMBL1148556, “Synthesis and preliminary biological evaluation of (2S,1'R,2'S)- and (2S,1'S,2'R)-2-(2'-phosphonocyclopropyl)glycines, two novel conformationally constrained l-AP4 analogues” (Bioorg Med Chem Lett, 2006).
